PubChem BioAssay (NCI)
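All cell lines were grown in 96-well plates and treated with compound for 48 hours. TGI denotes the concentration required for complete inhibition of growth.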

How the values were obtained:
Experiment in all cases: growth of human tumour cells (NCI), 48 h
786-0 renal = tested on: 786-0 renal
A498 renal = tested on: A498 renal
A549 NSCLC = tested on: A549 NSCLC
ACHN renal = tested on: ACHN renal
CAKI-1 renal = tested on: CAKI-1 renal
CCRF-CEM leukemia = tested on: CCRF-CEM leukemia
COLO 205 colon = tested on: COLO 205 colon
DLD-1 colon = tested on: DLD-1 colon
DMS 273 small cell lung = tested on: DMS 273 small cell lung
EKVX NSCLC = tested on: EKVX NSCLC
HCC-2998 colon = tested on: HCC-2998 colon
HCT-116 colon = tested on: HCT-116 colon
HCT-15 colon = tested on: HCT-15 colon
HL-60(TB) leukemia = tested on: HL-60(TB) leukemia
HOP-18 NSCLC = tested on: HOP-18 NSCLC
HOP-62 NSCLC = tested on: HOP-62 NSCLC
HOP-92 NSCLC = tested on: HOP-92 NSCLC
HT29 colon = tested on: HT29 colon
IGROV1 ovarian = tested on: IGROV1 ovarian
K-562 leukemia = tested on: K-562 leukemia
KM12 colon = tested on: KM12 colon
KM20L2 colon = tested on: KM20L2 colon
LOX IMVI melanoma = tested on: LOX IMVI melanoma
LXFL 529 NSCLC = tested on: LXFL 529 NSCLC
M14 melanoma = tested on: M14 melanoma
M19-MEL melanoma = tested on: M19-MEL melanoma
MALME-3M melanoma = tested on: MALME-3M melanoma
MOLT-4 leukemia = tested on: MOLT-4 leukemia
NCI-H226 lung = tested on: NCI-H226 lung
NCI-H23 lung = tested on: NCI-H23 lung
NCI-H460 lung = tested on: NCI-H460 lung
NCI-H522 lung = tested on: NCI-H522 lung
OVCAR-3 ovarian = tested on: OVCAR-3 ovarian
OVCAR-4 ovarian = tested on: OVCAR-4 ovarian
OVCAR-5 ovarian = tested on: OVCAR-5 ovarian
OVCAR-8 ovarian = tested on: OVCAR-8 ovarian
RXF 393 renal = tested on: RXF 393 renal
SF-268 CNS = tested on: SF-268 CNS
SF-295 CNS = tested on: SF-295 CNS
SF-539 CNS = tested on: SF-539 CNS
SK-MEL-2 melanoma = tested on: SK-MEL-2 melanoma
SK-MEL-28 melanoma = tested on: SK-MEL-28 melanoma
SK-MEL-5 melanoma = tested on: SK-MEL-5 melanoma
SK-OV-3 ovarian = tested on: SK-OV-3 ovarian
SN12C renal = tested on: SN12C renal
SNB-19 CNS = tested on: SNB-19 CNS
SNB-75 CNS = tested on: SNB-75 CNS
SW-620 colon = tested on: SW-620 colon
TK-10 renal = tested on: TK-10 renal
U251 CNS = tested on: U251 CNS
UACC-257 melanoma = tested on: UACC-257 melanoma
UACC-62 melanoma = tested on: UACC-62 melanoma
UO-31 renal = tested on: UO-31 renal
XF 498 CNS = tested on: XF 498 CNS
BT-549 breast = tested on: BT-549 breast
DU-145 prostate = tested on: DU-145 prostate
HS 578T breast = tested on: HS 578T breast
MCF7 breast = tested on: MCF7 breast
MDA-MB-231 breast = tested on: MDA-MB-231 breast
MDA-MB-435 = tested on: MDA-MB-435
MDA-N = tested on: MDA-N
NCI/ADR-RES ovarian = tested on: NCI/ADR-RES ovarian
PC-3 prostate = tested on: PC-3 prostate
RPMI-8226 leukemia = tested on: RPMI-8226 leukemia
SR leukemia = tested on: SR leukemia
T-47D breast = tested on: T-47D breast

Cc1c(C(=O)O)n(C)c(=O)n(C)c1=O
TGI (786-0 renal): > 100 µM | TGI (A498 renal): > 100 µM | TGI (A549 NSCLC): > 100 µM | TGI (ACHN renal): > 100 µM | TGI (CAKI-1 renal): > 100 µM | TGI (CCRF-CEM leukemia): > 100 µM | TGI (COLO 205 colon): > 100 µM | TGI (DLD-1 colon): > 100 µM | TGI (DMS 273 small cell lung): > 100 µM | TGI (EKVX NSCLC): > 100 µM | TGI (HCC-2998 colon): > 100 µM | TGI (HCT-116 colon): > 100 µM | TGI (HCT-15 colon): > 100 µM | TGI (HL-60(TB) leukemia): > 100 µM | TGI (HOP-18 NSCLC): > 100 µM | TGI (HOP-62 NSCLC): > 100 µM | TGI (HOP-92 NSCLC): > 100 µM | TGI (HT29 colon): > 100 µM | TGI (IGROV1 ovarian): > 100 µM | TGI (K-562 leukemia): > 100 µM | TGI (KM12 colon): > 100 µM | TGI (KM20L2 colon): > 100 µM | TGI (LOX IMVI melanoma): > 100 µM | TGI (LXFL 529 NSCLC): > 100 µM | TGI (M14 melanoma): > 100 µM | TGI (M19-MEL melanoma): > 100 µM | TGI (MALME-3M melanoma): > 100 µM | TGI (MOLT-4 leukemia): > 100 µM | TGI (NCI-H226 lung): > 100 µM | TGI (NCI-H23 lung): > 100 µM | TGI (NCI-H460 lung): > 100 µM | TGI (NCI-H522 lung): > 100 µM | TGI (OVCAR-3 ovarian): > 100 µM | TGI (OVCAR-4 ovarian): > 100 µM | TGI (OVCAR-5 ovarian): > 100 µM | TGI (OVCAR-8 ovarian): > 100 µM | TGI (RXF 393 renal): > 100 µM | TGI (SF-268 CNS): > 100 µM | TGI (SF-295 CNS): > 100 µM | TGI (SF-539 CNS): > 100 µM | TGI (SK-MEL-2 melanoma): > 100 µM | TGI (SK-MEL-28 melanoma): > 100 µM | TGI (SK-MEL-5 melanoma): > 100 µM | TGI (SK-OV-3 ovarian): > 100 µM | TGI (SN12C renal): > 100 µM | TGI (SNB-19 CNS): > 100 µM | TGI (SNB-75 CNS): > 100 µM | TGI (SW-620 colon): > 100 µM | TGI (TK-10 renal): > 100 µM | TGI (U251 CNS): > 100 µM | TGI (UACC-257 melanoma): > 100 µM | TGI (UACC-62 melanoma): > 100 µM | TGI (UO-31 renal): > 100 µM | TGI (XF 498 CNS): > 100 µM

COc1cccc(C2c3cc4c(cc3OC(Nc3ccccc3)C2C)OCO4)c1O (stereo not drawn)
TGI (786-0 renal): 32.1 µM | TGI (A498 renal): 23 µM | TGI (A549 NSCLC): 23.6 µM | TGI (ACHN renal): > 68.3 µM | TGI (BT-549 breast): 38.8 µM | TGI (CAKI-1 renal): 49.1 µM | TGI (CCRF-CEM leukemia): 16.6 µM | TGI (COLO 205 colon): > 35.6 µM | TGI (DU-145 prostate): > 53.9 µM | TGI (EKVX NSCLC): > 55.9 µM | TGI (HCC-2998 colon): 36.3 µM | TGI (HCT-116 colon): 36 µM | TGI (HCT-15 colon): 48.4 µM | TGI (HL-60(TB) leukemia): > 23.9 µM | TGI (HOP-62 NSCLC): 36.9 µM | TGI (HOP-92 NSCLC): 9.93 µM | TGI (HS 578T breast): > 62.6 µM | TGI (HT29 colon): 37.7 µM | TGI (IGROV1 ovarian): 35.5 µM | TGI (K-562 leukemia): 15 µM | TGI (KM12 colon): 24.8 µM | TGI (LOX IMVI melanoma): 18.9 µM | TGI (M14 melanoma): 15.1 µM | TGI (MALME-3M melanoma): 35.3 µM | TGI (MCF7 breast): > 75 µM | TGI (MDA-MB-231 breast): 37 µM | TGI (MDA-MB-435): 5.66 µM | TGI (MDA-N): 6.98 µM | TGI (MOLT-4 leukemia): 16 µM | TGI (NCI-H226 lung): 33.2 µM | TGI (NCI-H23 lung): 45.2 µM | TGI (NCI-H460 lung): 26.4 µM | TGI (NCI-H522 lung): 20.6 µM | TGI (NCI/ADR-RES ovarian): > 100 µM | TGI (OVCAR-3 ovarian): 29.9 µM | TGI (OVCAR-4 ovarian): > 100 µM | TGI (OVCAR-5 ovarian): > 93.8 µM | TGI (OVCAR-8 ovarian): 35.7 µM | TGI (PC-3 prostate): 36.9 µM | TGI (RPMI-8226 leukemia): 43.8 µM | TGI (RXF 393 renal): 31.4 µM | TGI (SF-268 CNS): > 55.6 µM | TGI (SF-295 CNS): 18.7 µM | TGI (SF-539 CNS): 18.1 µM | TGI (SK-MEL-2 melanoma): 51.9 µM | TGI (SK-MEL-28 melanoma): 27 µM | TGI (SK-MEL-5 melanoma): 17.7 µM | TGI (SK-OV-3 ovarian): > 71.6 µM | TGI (SN12C renal): 27.8 µM | TGI (SNB-19 CNS): 74 µM | TGI (SNB-75 CNS): 26.8 µM | TGI (SR leukemia): 7.25 µM | TGI (SW-620 colon): 36.8 µM | TGI (T-47D breast): > 75.4 µM | TGI (TK-10 renal): 64.2 µM | TGI (U251 CNS): 23.2 µM | TGI (UACC-257 melanoma): > 57.8 µM | TGI (UACC-62 melanoma): 29 µM | TGI (UO-31 renal): 32.4 µM
